Assay results reported in patent publication US20240108601A1, “TREATMENT OF MENTAL DISORDERS” (GH Research Ireland Limited, priority 2022, published 2024).
Values joined by “and” are separate entries in the source; they are usually repeats but may differ in a detail not shown here. Identical values can stand only once.

Test system: patients with treatment-resistant major depressive disorder (TRD)
Experiment: Phase 1/2 clinical trial of inhaled 5-MeO-DMT in treatment-resistant depression
Settings: for MADRS Concentration Difficulties % improvement / MADRS Concentration Difficulties improvement / MADRS Inability to Feel % improvement / MADRS Inability to Feel improvement / MADRS Inner Tension % improvement / MADRS Inner Tension improvement / MADRS Lassitude % improvement / MADRS Lassitude improvement / MADRS Pessimistic Thoughts % improvement / MADRS Pessimistic Thoughts improvement / MADRS Suicidal Thoughts % improvement / MADRS Suicidal Thoughts improvement / MADRS Suicidal Thoughts aggregated score / MADRS Inner Tension aggregated score / MADRS Lassitude aggregated score / MADRS Pessimistic Thoughts aggregated score / MADRS Concentration Difficulties aggregated score / MADRS Inability to Feel aggregated score / BPRS Anxiety % improvement / BPRS Anxiety improvement / BPRS Blunted Affect % improvement / BPRS Blunted Affect improvement / BPRS Emotional Withdrawal % improvement / BPRS Emotional Withdrawal improvement / BPRS Guilt Feelings % improvement / BPRS Guilt Feelings improvement / BPRS Tension % improvement / BPRS Tension improvement / BPRS Emotional Withdrawal aggregated score / BPRS Blunted Affect aggregated score / BPRS Tension aggregated score / BPRS Guilt Feelings aggregated score / BPRS Anxiety aggregated score / MADRS Reduced Sleep % improvement / MADRS Reduced Sleep improvement / MADRS Reduced Sleep aggregated score: IDR n=8; for MADRS Suicidal Thoughts aggregated score: baseline 11; for MADRS Inner Tension aggregated score: baseline 26; for MADRS Lassitude aggregated score: baseline 27; for MADRS Pessimistic Thoughts aggregated score: baseline 28; for MADRS Concentration Difficulties aggregated score: baseline 30; for MADRS Inability to Feel aggregated score: baseline 36; for BPRS Emotional Withdrawal aggregated score: baseline 13; for BPRS Blunted Affect aggregated score: baseline 15; for BPRS Tension aggregated score: baseline 16; for BPRS Guilt Feelings aggregated score: baseline 34; for BPRS Anxiety aggregated score: baseline 37; for MADRS Reduced Sleep aggregated score: baseline 25
Method: Patients were assigned to different groups. In the context of the present invention, the group who received a single, 12 mg dose and the group who underwent an intra-day individualized dosing regimen (IDR) that allowed for multiple, escalating doses (6 mg, 12 mg and 18 mg) within a single day, driven by the intensity of the patient-reported psychedelic experience are of interest.
The data gathered include the assessment of the treated patients against several scales including the Montgomery Åsberg Depression Rating Scale (MADRS) and the Brief Psychiatric Rating Scale (BPRS).
This trial was designed in two parts. Part A was an open-label, single-arm, single-dose Phase 1 trial with two dose levels (12 mg (n=4) and 18 mg (n=4)). […] The primary endpoint of Part B was to assess the effects on the severity of depression, as assessed by the proportion of patients in remission on day seven after dosing, defined as a MADRS total score of less than or equal to 10.

COc1ccc2[nH]cc(CCN(C)C)c2c1 [5-MeO-DMT]
MADRS Concentration Difficulties % improvement (2 h): 63% and 63.33%
MADRS Concentration Difficulties improvement (2 h): 19 points
MADRS Inability to Feel % improvement (2 h): 67% and 66.67%
MADRS Inability to Feel improvement (2 h): 24 points
MADRS Inner Tension % improvement (2 h): 58% and 57.69%
MADRS Inner Tension improvement (2 h): 15 points
MADRS Lassitude % improvement (2 h): 63% and 62.96%
MADRS Lassitude improvement (2 h): 17 points
MADRS Pessimistic Thoughts % improvement (2 h): 75%
MADRS Pessimistic Thoughts improvement (2 h): 21 points
MADRS Suicidal Thoughts % improvement (2 h): 73% and 72.72%
MADRS Suicidal Thoughts improvement (2 h): 8 points
MADRS Suicidal Thoughts aggregated score (2 h): 3
MADRS Inner Tension aggregated score (2 h): 11
MADRS Lassitude aggregated score (2 h): 10
MADRS Pessimistic Thoughts aggregated score (2 h): 7
MADRS Concentration Difficulties aggregated score (2 h): 11
MADRS Inability to Feel aggregated score (2 h): 12
BPRS Anxiety % improvement (3 h): 49% and 48.65%
BPRS Anxiety improvement (3 h): 18 points
BPRS Blunted Affect % improvement (3 h): 27% and 26.67%
BPRS Blunted Affect improvement (3 h): 4 points
BPRS Emotional Withdrawal % improvement (3 h): 38% and 38.46%
BPRS Emotional Withdrawal improvement (3 h): 5 points
BPRS Guilt Feelings % improvement (3 h): 59% and 58.82%
BPRS Guilt Feelings improvement (3 h): 20 points
BPRS Tension % improvement (3 h): 31% and 31.25%
BPRS Tension improvement (3 h): 5 points
BPRS Emotional Withdrawal aggregated score (3 h): 8
BPRS Blunted Affect aggregated score (3 h): 11
BPRS Tension aggregated score (3 h): 11
BPRS Guilt Feelings aggregated score (3 h): 14
BPRS Anxiety aggregated score (3 h): 19
BPRS Anxiety % improvement (day 1): 57% and 56.76%
BPRS Anxiety improvement (day 1): 21 points
BPRS Blunted Affect % improvement (day 1): 47% and 46.67%
BPRS Blunted Affect improvement (day 1): 7 points
BPRS Emotional Withdrawal % improvement (day 1): 38% and 38.46%
BPRS Emotional Withdrawal improvement (day 1): 5 points
BPRS Guilt Feelings % improvement (day 1): 68% and 67.65%
BPRS Guilt Feelings improvement (day 1): 23 points
BPRS Tension % improvement (day 1): 31% and 31.25%
BPRS Tension improvement (day 1): 5 points
MADRS Concentration Difficulties % improvement (day 1): 97% and 96.67%
MADRS Concentration Difficulties improvement (day 1): 29 points
MADRS Inability to Feel % improvement (day 1): 94% and 94.44%
MADRS Inability to Feel improvement (day 1): 34 points
MADRS Inner Tension % improvement (day 1): 77% and 76.92%
MADRS Inner Tension improvement (day 1): 20 points
MADRS Lassitude % improvement (day 1): 81% and 81.48%
MADRS Lassitude improvement (day 1): 22 points
MADRS Pessimistic Thoughts % improvement (day 1): 86% and 85.71%
MADRS Pessimistic Thoughts improvement (day 1): 24 points
MADRS Reduced Sleep % improvement (day 1): 52%
MADRS Reduced Sleep improvement (day 1): 13 points
MADRS Suicidal Thoughts % improvement (day 1): 91% and 90.91%
MADRS Suicidal Thoughts improvement (day 1): 10 points
MADRS Suicidal Thoughts aggregated score (day 1): 1
BPRS Emotional Withdrawal aggregated score (day 1): 8
BPRS Blunted Affect aggregated score (day 1): 8
BPRS Tension aggregated score (day 1): 11
MADRS Reduced Sleep aggregated score (day 1): 12
MADRS Inner Tension aggregated score (day 1): 6
MADRS Lassitude aggregated score (day 1): 5
MADRS Pessimistic Thoughts aggregated score (day 1): 4
MADRS Concentration Difficulties aggregated score (day 1): 1
BPRS Guilt Feelings aggregated score (day 1): 11
MADRS Inability to Feel aggregated score (day 1): 2
BPRS Anxiety aggregated score (day 1): 16
BPRS Anxiety % improvement (day 7): 54% and 54.05%
BPRS Anxiety improvement (day 7): 20 points
BPRS Blunted Affect % improvement (day 7): 47% and 46.67%
BPRS Blunted Affect improvement (day 7): 7 points
BPRS Emotional Withdrawal % improvement (day 7): 38% and 38.46%
BPRS Emotional Withdrawal improvement (day 7): 5 points
BPRS Guilt Feelings % improvement (day 7): 71% and 70.59%
BPRS Guilt Feelings improvement (day 7): 24 points
BPRS Tension % improvement (day 7): 38% and 37.50%
BPRS Tension improvement (day 7): 6 points
MADRS Concentration Difficulties % improvement (day 7): 70%
MADRS Concentration Difficulties improvement (day 7): 21 points
MADRS Inability to Feel % improvement (day 7): 83% and 83.33%
MADRS Inability to Feel improvement (day 7): 30 points
MADRS Inner Tension % improvement (day 7): 54% and 53.85%
MADRS Inner Tension improvement (day 7): 14 points
MADRS Lassitude % improvement (day 7): 89% and 88.89%
MADRS Lassitude improvement (day 7): 24 points
MADRS Pessimistic Thoughts % improvement (day 7): 89% and 89.29%
MADRS Pessimistic Thoughts improvement (day 7): 25 points
MADRS Reduced Sleep % improvement (day 7): 64%
MADRS Reduced Sleep improvement (day 7): 16 points
MADRS Suicidal Thoughts % improvement (day 7): 73% and 72.73%
MADRS Suicidal Thoughts improvement (day 7): 8 points
MADRS Suicidal Thoughts aggregated score (day 7): 3
BPRS Emotional Withdrawal aggregated score (day 7): 8
BPRS Blunted Affect aggregated score (day 7): 8
BPRS Tension aggregated score (day 7): 10
MADRS Reduced Sleep aggregated score (day 7): 9
MADRS Inner Tension aggregated score (day 7): 12
MADRS Lassitude aggregated score (day 7): 3
MADRS Pessimistic Thoughts aggregated score (day 7): 3
MADRS Concentration Difficulties aggregated score (day 7): 9
BPRS Guilt Feelings aggregated score (day 7): 10
MADRS Inability to Feel aggregated score (day 7): 6
BPRS Anxiety aggregated score (day 7): 17
Patients maintaining remission (IDR, Day 7): 7/8
Patients achieving remission (IDR, day 1): 8/8
Patients achieving remission (IDR, within 2h after dosing): 5/8
SAEs (Part A): No SAEs were reported
Changes in safety laboratory analyses, vital signs, psychiatric safety assessments, cognitive function (Part A and Part B): No clinically significant changes
Patients with at least one ADR (Part A, both groups (12 mg and 18 mg), all mild, resolved spontaneously): 3 of 4
SAEs (Part B): No SAEs were reported
Patients with at least one ADR (Part B IDR n=8, all resolved spontaneously): 87.5%
Hypomania induction (TRD patients): no evidence of hypomania induction
